Columns and labels:
[1] = test system: UV-induced squamous cell carcinoma (SCC), actinic keratosis (AK), or pre-AK lesions; assay: UV-induced epidermal neoplasia in SKH-1 mice, Example 3 (simultaneous initiation, 18 weeks); assay type: in vivo; conditions: for % Disease: topical twice per week, UV five days per week for 18 weeks; for Avg. Disease Score: twice per week, UV 18 weeks, SCC + AK + pre-AK lesion score (Table 5)
Text: (§1) Female SKH-1 mice 9-10 weeks old were obtained from Charles River (Raleigh, N.C.) and housed in a room with controlled temperatures and humidity and alternating 12-hour light and dark cycles. The room is lit with fluorescent lights covered by yellow sleeves from EncapSulite International, Inc. (Rosenberg, Tex.) to eliminate all ambient UV radiation. The mice were fed with a 12% Corn Oil Purified Diet from Purina Test Diet (Richmond, Va.) and water, ad libitum. The animals were maintained in facilities approved by the Association for the Assessment and Accreditation of Laboratory Animal Care International and in accordance with current United States Department of Agriculture, Department of Health and Human Services, and National Institutes of Health regulations and standards.
(§2) A small group of mice were not exposed to UV and were used as negative controls. The other mice were chronically UV irradiated. After randomization the mice were lightly anesthetized with halothane and adjustable collars made of hook and loop fastener approximately 10 mm wide and 70 mm long were placed around the mouse's neck to prevent oral ingestion of the IRM. Unless otherwise indicated, thirty minutes before UV exposure mice were topically dosed with 30 μL of either (1) vehicle formulation, (2) IRM formulation, or (3) an SPF 30 sunscreen (NEUTROGENA SPF30 Sunblock with PARSOL 1789), two times per week for a total of 15-18 weeks on the dorsal surface in an area approximately 6 cm^2. Approximately four hours after dosing, the topical treatment (i.e, vehicle formulation; IRM formulation, or sunscreen) was washed off using a dilute soap solution.
(§3) Mice were placed in a standard plexiglass rat cage, 9-10 at a time, that was separated into 12 individual compartments with plexiglass dividers and placed on a shelf 14 inches below the light source without wire cage tops. The mice were exposed to UV radiation 5 times per week (Monday thru Friday) for an average of 15-18 weeks. The UV radiation was provided by a bank of six FS40 lamps (National Biological Corporation, Twinsburg, Ohio), filtered by a Kodacel filter (140 μm thick K6808 cellulose triacetate film; Eastman Kodak, Rochester, N.Y.) that transmits radiation having a wavelength from about 293 nm to about 400 nm. The Kodacel filter was aged 4-6 hours before use. The lights emit UVB (21%) and UVA (79%) light with a peak wavelength of 313 nm, as measured using a radiometer Model PMA 2200 from Solar Light Company (Philadelphia, Pa.) with a PMA 2101 detector for UVB and PMA2110 detector for UVA.
(§4) The dose of UVB irradiation was measured by MED (minimal erythemal dose). By using MED, a relatively constant incident dose of UV was maintained over time. The initial dose of UVB to the mice was 12.6 mJ/cm^2 (0.6 MED) and the average total dose of UVB was 3000-5200 mJ/cm^2. An increase of 10-20% of the MED dose per week was needed due to acclimation of the mice.
(§5) All mice were distinguished from one another by a tattoo placed on the tail. The development and appearance of tumors were noted weekly and recorded starting at about 14-18 weeks.
Formulations of IRM1 and IRM2 were prepared using Vehicle 1. UV dosing and IRM dosing were initiated simultaneously. UV dosing was performed five days per week for 18 weeks.
After 18 weeks, the mice were subjected to gross inspection to determine the presence of a disease state, i.e., squamous cell carcinoma (SCC), actinic keratosis (AK), or pre-AK lesions.
The disease state of each mouse was scored by measuring the size and/or number of lesions present on the mouse. SCC lesions and AK lesions of at least 1 mm in diameter were given a score of 1.
The SCC lesion score, AK lesion score, and the pre-AK lesion score (according to Table 5) were added to provide a total disease score for each mouse. Table 6 includes the average disease score for all of the mice in each treatment group.

[2] = test system: UV-induced squamous cell carcinoma (SCC), actinic keratosis (AK), or pre-AK lesions; assay: UV-induced epidermal neoplasia in SKH-1 mice, Example 1 (UV and IRM dosing initiated simultaneously, 15 weeks); assay type: in vivo; conditions: 0.1% formulation in Vehicle 1, topical twice per week, UV five days per week for 15 weeks
Text: (§6) Female SKH-1 mice 9-10 weeks old were obtained from Charles River (Raleigh, N.C.) and housed in a room with controlled temperatures and humidity and alternating 12-hour light and dark cycles. The room is lit with fluorescent lights covered by yellow sleeves from EncapSulite International, Inc. (Rosenberg, Tex.) to eliminate all ambient UV radiation. The mice were fed with a 12% Corn Oil Purified Diet from Purina Test Diet (Richmond, Va.) and water, ad libitum. […]
(§7) Mice were placed in a standard plexiglass rat cage, 9-10 at a time, that was separated into 12 individual compartments with plexiglass dividers and placed on a shelf 14 inches below the light source without wire cage tops. […] The lights emit UVB (21%) and UVA (79%) light with a peak wavelength of 313 nm, as measured using a radiometer Model PMA 2200 from Solar Light Company (Philadelphia, Pa.) with a PMA 2101 detector for UVB and PMA2110 detector for UVA.
(§8) The dose of UVB irradiation was measured by MED (minimal erythemal dose). […]
(§9) All mice were distinguished from one another by a tattoo placed on the tail. The development and appearance of tumors were noted weekly and recorded starting at about 14-18 weeks. […]

[3] = test system: UV-induced squamous cell carcinoma (SCC), actinic keratosis (AK), or pre-AK lesions; assay: UV-induced epidermal neoplasia in SKH-1 mice, Example 2 (UV dosing six weeks before IRM dosing, 15 weeks); assay type: in vivo; conditions: topical twice per week, UV for six weeks before IRM dosing, UV five days per week for 15 weeks
Text: as §6, §7, §8, §9

[4] = test system: UV-induced squamous cell carcinoma (SCC), actinic keratosis (AK), or pre-AK lesions; assay: UV-induced epidermal neoplasia in SKH-1 mice, Example 4 (simultaneous initiation, 17 weeks); assay type: in vivo; conditions: 0.1% formulation, twice per week; for Avg. Disease Score: UV 17 weeks, every SCC, AK and pre-AK lesion scored 1; for % Disease / Diseased (number of mice): UV five days per week for 17 weeks
Text: as §1, §2, §3, §4, §5
UV dosing and IRM dosing were initiated simultaneously. Daily UV dosing was performed five days per week for 17 weeks. IRM dosing was performed twice per week with the compounds indicated in Table 9, each in a 0.1% formulation. SPF dosing was performed five times per week.
An additional group of mice were topically dosed twice per week with 0.1% formulation of a non-IRM control compound: 1,5-dihydro-1-(2-methylpropyl)-4H-imidazo[4,5-c]quinolin-4-one, the synthesis of which is described in U.S. Pat. No. 4,698,348, Example 71, formulated as shown in Table 8. The non-IRM compound is structurally related to, but outside the scope of, IRM compounds as provided above. […] Mice in the non-IRM group were UV dosed five times per week for 18 weeks. […]

[5] = test system: actinic keratosis (AK) lesions; assay: Clinical treatment of actinic keratosis lesions and recurrence at follow-up, Example 5; assay type: in vivo
Description: Subjects with four to eight clinically typical, visible, discrete actinic keratosis (AK) lesions in a 25 cm^2 treatment area were randomized in a 1:1 ratio to receive either a 5% cream formulation of IRM14 (ALDARA, 3M Company, St. Paul, Minn.) or vehicle cream once daily three days per week. Subjects received treatment for sixteen weeks even if clinical evidence of lesion clearance was observed. Subjects were evaluated at an Evaluation visit eight weeks after the treatment period concluded.
Subjects were instructed to administer a single application of cream (vehicle or IRM14, as assigned) to the treatment area at approximately the same time of day three days per week. The subjects were instructed to wash the treatment area prior to applying the cream, rub the cream into the treatment area, and then leave the cream in place for at least eight hours without occlusion.
Subjects with no (zero) clinically visible AK lesions in the 25 cm^2 treatment area at the Evaluation visit were considered complete responders. 117 of 242 (48.3%) subjects receiving IRM14 were complete responders; 18 of 250 (7.2%) vehicle-treated subjects were complete responders.
Complete responders were re-evaluated for recurrence of AK lesions at a Follow-up visit between 12 and 18 months after the Evaluation visit. Subjects received no IRM14 treatment between the Evaluation visit and the Follow-up visit. […]

[6] = test system: cytokines; assay: Induction of production and secretion of cytokines

Question: Which results are given for `CC(C)Cn1cnc2c(N)nc3cccnc3c21` [IRM1, 1-(2-methylpropyl)-1H-imidazo[4,5-c][1,5]naphthyridin-4-amine]?
Answer: % Disease ([1]; 0.01% formulation): 71%; Avg. Disease Score ([1]; 0.01% formulation): 2.86 ± 0.82; % Disease ([1]; 0.1% formulation): 50%; Avg. Disease Score ([1]; 0.1% formulation): 0.66 ± 0.33; % Disease (percentage of mice exhibiting a disease state) [2]: 0%

Question: What does the source list for `Cc1nc2c(N)nc3cccnc3c2n1CC(C)C` [IRM2, 2-methyl-1-(2-methylpropyl)-1H-imidazo[4,5-c][1,5]naphthyridin-4-amine]?
Answer: % Disease ([3]; 0.1% formulation): 63%; % Disease ([3]; 1.0% formulation): 50%; % Disease ([1]; 0.01% formulation): 71%; Avg. Disease Score ([1]; 0.01% formulation): 4.86 ± 1.81; % Disease ([1]; 0.1% formulation): 25%; Avg. Disease Score ([1]; 0.1% formulation): 0.6 ± 0.42; % Disease (percentage of mice exhibiting a disease state) [2]: 11%

Question: What does the source list for `Nc1nc2ccccc2c2c1nc1n2CCCC1` [IRM3, 8,9,10,11-tetrahydropyrido[1′,2′:1,2]imidazo[4,5-c]quinolin-6-amine]?
Answer: Avg. Disease Score [4]: 1.00 ± 0.54; % Disease [4]: 30%; Diseased (number of mice) [4]: 3

Question: What does the source list for `CCOCc1nc2c(N)nc3ccccc3c2n1CC(C)(C)NC(=O)C1CCCCC1` [IRM4, N-{2-[4-amino-2-(ethoxymethyl)-1H-imidazo[4,5-c]quinolin-1-yl]-1,1-dimethylethyl}cyclohexanecarboxamide]?
Answer: Avg. Disease Score [4]: 0.67 ± 0.67; % Disease [4]: 11%; Diseased (number of mice) [4]: 1

Question: How did the “Avg. Disease Score” value [4] turn out when `CCc1nc2c(N)nc3ccccc3c2n1CCCCNC(=O)C(C)C` [IRM5, N-[4-(4-amino-2-ethyl-1H-imidazo[4,5-c]quinolin-1-yl)butyl]-2-methylpropanamide] was run?
Answer: 5.40 ± 1.91

Question: And the “% Disease” value [4]?
Answer: 60%

Question: And the “Diseased (number of mice)” value [4]?
Answer: 6

Question: How did the “Avg. Disease Score” value [4] turn out when `CCCc1nc2c(N)nc3ccccc3c2n1CC(C)(C)NS(C)(=O)=O` [IRM6, N-[2-(4-amino-2-propyl-1H-imidazo[4,5-c]quinolin-1-yl)-1,1-dimethylethyl]methanesulfonamide] was run?
Answer: 0.38 ± 0.38

Question: And the “% Disease” value [4]?
Answer: 13%

Question: And the “Diseased (number of mice)” value [4]?
Answer: 1

Question: `COCCc1nc2c(N)nc3c(c2n1CC(C)(C)NS(C)(=O)=O)CCCC3` [IRM7, N-{2-[4-amino-2-(2-methoxyethyl)-6,7,8,9-tetrahydro-1H-imidazo[4,5-c]quinolin-1-yl]-1,1-dimethylethyl}methanesulfonamide] was tested. Which “Avg. Disease Score” value [4] did it give?
Answer: 3.90 ± 1.30

Question: And the “% Disease” value [4]?
Answer: 60%

Question: And the “Diseased (number of mice)” value [4]?
Answer: 6

Question: Which results are given for `CCCc1nc2c(N)nc3ccccc3c2n1CCCCNC(=O)NC(C)C` [IRM8, N-[4-(4-amino-2-propyl-1H-imidazo[4,5-c]quinolin-1-yl)butyl]-N′-isopropylurea]?
Answer: Avg. Disease Score [4]: 3.13 ± 0.89; % Disease [4]: 75%; Diseased (number of mice) [4]: 6

Question: `CCOCc1nc2c(N)nc(C)c(C)c2n1CC(C)(C)NC(=O)NC1CCCCC1` [IRM9, N-{2-[4-amino-2-(ethoxymethyl)-6,7-dimethyl-1H-imidazo[4,5-c]pyridin-1-yl]-1,1-dimethylethyl}-N′-cyclohexylurea] was tested. Which “Avg. Disease Score” value [4] did it give?
Answer: 2.00 ± 0.89

Question: And the “% Disease” value [4]?
Answer: 60%

Question: What about the “Diseased (number of mice)” value [4] of the same compound?
Answer: 3

Question: How did the “Avg. Disease Score” value [4] turn out when `Nc1nc2ccccc2c2c1ncn2CCOCCCc1cccnc1` [IRM10, 1-{2-[3-(3-pyridyl)propoxy]ethyl}-1H-imidazo[4,5-c]quinolin-4-amine] was run?
Answer: 2.50 ± 1.07

Question: What about the “% Disease” value [4] of the same compound?
Answer: 70%

Question: And the “Diseased (number of mice)” value [4]?
Answer: 7

Question: How did the “Avg. Disease Score” value [4] turn out when `CCCCc1nc2c(N)nc3ccccc3c2n1CCCS(C)(=O)=O` [IRM11, 2-butyl-1-[3-(methylsulfonyl)propyl]-1H-imidazo[4,5-c]quinolin-4-amine] was run?
Answer: 0.70 ± 0.47

Question: What about the “% Disease” value [4] of the same compound?
Answer: 20%

Question: What about the “Diseased (number of mice)” value [4] of the same compound?
Answer: 2

Question: For `CCCCc1nc2c(N)nc3ccccc3c2n1CCS(=O)(=O)CCC` [IRM12, 2-butyl-1-[2-(propylsulfonyl)ethyl]-1H-imidazo[4,5-c]quinolin-4-amine], which “Avg. Disease Score” value [4] is on record?
Answer: 0.00 ± 0.00

Question: What about the “% Disease” value [4] of the same compound?
Answer: 0%

Question: What about the “Diseased (number of mice)” value [4] of the same compound?
Answer: 0

Question: With `CCOCc1nc2c(N)nc3ccccc3c2n1NC(C)C` [IRM13, 2-ethoxymethyl-N^1-isopropyl-1H-imidazo[4,5-c]quinoline-1,4-diamine] as the compound, how does the “Avg. Disease Score” value [4] read?
Answer: 3.33 ± 1.54

Question: And the “% Disease” value [4]?
Answer: 67%

Question: What about the “Diseased (number of mice)” value [4] of the same compound?
Answer: 4

Question: For `CC(C)Cn1cnc2c(N)nc3ccccc3c21` [IRM14, 1-(2-methylpropyl)-1H-imidazo[4,5-c]quinolin-4-amine], which “complete responders (no clinically visible AK lesions in the 25 cm^2 treatment area at the Evaluation visit)” value ([5]; 5% cream once daily three days per week for sixteen weeks, evaluated eight weeks after treatment, 117 of 242 subjects) is on record?
Answer: 48.3%

Question: And the “AK Recurrence Rate” value ([5]; complete responders at Follow-up visit 12 to 18 months after Evaluation visit, no treatment in between, 77 IRM14-treated)?
Answer: 24.7%

Question: How did the “induction of production and secretion of cytokines” value [6] turn out when `CC(C)Cn1cnc2c(=O)[nH]c3ccccc3c21` [non-IRM, 1,5-dihydro-1-(2-methylpropyl)-4H-imidazo[4,5-c]quinolin-4-one] was run?
Answer: does not induce the production and secretion of cytokines

Reference: patent publication US8110582B2, “Prophylactic treatment of UV-induced epidermal neoplasia” (3M Innovative Properties Company, priority 2003, dated 2012)
